Results taken from patent US20250152526A1, “USES OF IVALTINOSTAT FOR TREATING PANCREATIC CANCER” (CG PHARMACEUTICALS, INC, priority 2022, published 2025).

Tests used:
pancreatic cancer = conditions: 1250 mg/m^2 twice daily for 2 weeks followed by 1-week rest, first line; cited from earlier work
[1] = test system: germline BRCA-mutated metastatic pancreatic cancer; conditions: cited from earlier work
[2] = Phase 1/2 study of ivaltinostat (IV) in combination with gemcitabine and erlotinib
Procedure: Ivaltinostat was administered on Days 1, 8 and 15 of a 28-day cycle in combination with gemcitabine (1000 mg/m^2; IV on Days 1, 8, and 15) and erlotinib (100 mg orally QD).
In the Phase 2 component of the study, 24 subjects received ivaltinostat at a dose level of 250 mg/m^2 in combination of gemcitabine (1000 mg/m^2; IV on Days 1, 8, and 15) and erlotinib (100 mg orally QD). In Phase 2, planned treatment duration was up to 6 cycles, but treatment could continue beyond 6 cycles if there was no progression of disease, at the discretion of the subject and treating physician.

CYP3A = assay: nonclinical CYP substrate studies; type: in vitro ADME
From the text: (§1) Concomitant use of drugs that are moderate or strong inhibitors or inducers of these CYP enzymes should be avoided. […] Concomitant use of drugs that are substrates of CYP2D6 and have a narrow therapeutic index is not advised.

CYP2D6 [3] = target: T1, CYP2D6 (Homo sapiens, UniProt P10635); assay: nonclinical CYP substrate studies; type: in vitro ADME
From the text: as §1

CYP2C19 = CYP2C19 (Homo sapiens, UniProt P33261); assay: in vitro CYP inhibition; type: in vitro ADME
From the text: as §1

CYP2D6 [4] = target: T1, CYP2D6; assay: in vitro CYP inhibition; type: in vitro ADME
From the text: as §1

CYP3A4 = CYP3A4 (Homo sapiens, UniProt P08684); assay: in vitro CYP inhibition; type: in vitro ADME
From the text: as §1

CYP2C9 = CYP2C9 (Homo sapiens, UniProt P11712); assay: in vitro CYP inhibition; type: in vitro ADME
From the text: as §1

CYP1A2 = target: T2, CYP1A2 (Homo sapiens, UniProt P05177); assay: in vitro CYP inhibition; type: in vitro ADME
T2 sequence (P05177 1-516): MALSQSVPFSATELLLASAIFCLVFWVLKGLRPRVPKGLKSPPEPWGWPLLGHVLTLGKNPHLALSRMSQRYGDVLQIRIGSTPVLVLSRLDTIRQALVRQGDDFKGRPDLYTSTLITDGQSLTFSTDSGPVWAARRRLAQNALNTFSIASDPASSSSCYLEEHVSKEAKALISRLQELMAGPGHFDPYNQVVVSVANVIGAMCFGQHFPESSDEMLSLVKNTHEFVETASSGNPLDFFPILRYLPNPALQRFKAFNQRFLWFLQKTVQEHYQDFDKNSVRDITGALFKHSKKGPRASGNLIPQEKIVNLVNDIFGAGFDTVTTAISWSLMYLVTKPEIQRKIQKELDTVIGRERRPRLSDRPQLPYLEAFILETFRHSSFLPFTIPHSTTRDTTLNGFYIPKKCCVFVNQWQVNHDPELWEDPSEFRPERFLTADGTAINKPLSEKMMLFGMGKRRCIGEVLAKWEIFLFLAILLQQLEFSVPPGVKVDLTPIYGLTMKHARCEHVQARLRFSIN
From the text: as §1

[5] = test system: metastatic pancreatic cancer; conditions: first line; cited from earlier work
[6] = Phase 2, 250 mg/m^2 plus gemcitabine and erlotinib
[7] = Phase 2, 16 evaluable subjects, plus gemcitabine and erlotinib
[8] = Phase 2, 16 subjects with at least one tumor evaluation, plus gemcitabine and erlotinib

T1 sequence (P10635 whole entry): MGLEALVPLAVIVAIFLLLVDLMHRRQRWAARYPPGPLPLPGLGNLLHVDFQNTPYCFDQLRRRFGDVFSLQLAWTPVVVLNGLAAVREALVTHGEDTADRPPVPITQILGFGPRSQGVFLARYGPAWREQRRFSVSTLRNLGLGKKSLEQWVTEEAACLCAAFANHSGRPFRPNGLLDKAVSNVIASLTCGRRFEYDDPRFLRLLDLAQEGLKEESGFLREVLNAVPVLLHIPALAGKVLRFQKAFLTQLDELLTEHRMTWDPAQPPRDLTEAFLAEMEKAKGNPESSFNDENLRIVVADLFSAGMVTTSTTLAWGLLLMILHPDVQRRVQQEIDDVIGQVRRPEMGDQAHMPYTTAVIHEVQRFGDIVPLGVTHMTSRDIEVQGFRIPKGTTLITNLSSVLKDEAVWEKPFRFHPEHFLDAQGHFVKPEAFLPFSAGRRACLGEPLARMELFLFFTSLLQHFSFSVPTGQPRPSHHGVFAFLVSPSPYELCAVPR
Sequence of CYP2C9 (P11712 whole entry): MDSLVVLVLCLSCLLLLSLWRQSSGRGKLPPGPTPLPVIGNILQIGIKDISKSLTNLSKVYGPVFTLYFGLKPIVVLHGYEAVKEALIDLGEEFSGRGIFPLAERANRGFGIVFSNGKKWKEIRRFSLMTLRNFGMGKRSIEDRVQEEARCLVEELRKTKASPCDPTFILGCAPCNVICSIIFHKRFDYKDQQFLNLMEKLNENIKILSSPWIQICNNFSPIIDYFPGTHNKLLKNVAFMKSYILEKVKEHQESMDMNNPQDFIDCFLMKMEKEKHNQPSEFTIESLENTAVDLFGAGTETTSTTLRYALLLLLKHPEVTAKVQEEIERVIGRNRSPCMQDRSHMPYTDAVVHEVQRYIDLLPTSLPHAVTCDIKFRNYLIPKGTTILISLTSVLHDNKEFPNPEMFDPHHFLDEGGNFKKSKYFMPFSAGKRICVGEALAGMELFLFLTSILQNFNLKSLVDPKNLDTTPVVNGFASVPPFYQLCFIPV
Sequence of CYP3A4 (P08684 whole entry): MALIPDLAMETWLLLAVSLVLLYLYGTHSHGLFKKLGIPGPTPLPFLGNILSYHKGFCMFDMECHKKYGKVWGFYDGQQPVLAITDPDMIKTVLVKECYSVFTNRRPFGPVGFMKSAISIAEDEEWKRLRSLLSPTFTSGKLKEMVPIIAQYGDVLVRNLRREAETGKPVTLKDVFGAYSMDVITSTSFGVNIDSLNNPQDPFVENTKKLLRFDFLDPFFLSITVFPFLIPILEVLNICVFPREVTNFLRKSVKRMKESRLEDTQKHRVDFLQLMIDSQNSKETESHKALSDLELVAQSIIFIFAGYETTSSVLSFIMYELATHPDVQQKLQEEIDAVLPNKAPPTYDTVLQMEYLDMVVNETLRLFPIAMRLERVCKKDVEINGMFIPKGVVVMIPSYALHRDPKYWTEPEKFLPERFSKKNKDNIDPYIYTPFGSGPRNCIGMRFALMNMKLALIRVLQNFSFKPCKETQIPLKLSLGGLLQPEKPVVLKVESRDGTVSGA
Sequence of CYP2C19 (P33261 whole entry): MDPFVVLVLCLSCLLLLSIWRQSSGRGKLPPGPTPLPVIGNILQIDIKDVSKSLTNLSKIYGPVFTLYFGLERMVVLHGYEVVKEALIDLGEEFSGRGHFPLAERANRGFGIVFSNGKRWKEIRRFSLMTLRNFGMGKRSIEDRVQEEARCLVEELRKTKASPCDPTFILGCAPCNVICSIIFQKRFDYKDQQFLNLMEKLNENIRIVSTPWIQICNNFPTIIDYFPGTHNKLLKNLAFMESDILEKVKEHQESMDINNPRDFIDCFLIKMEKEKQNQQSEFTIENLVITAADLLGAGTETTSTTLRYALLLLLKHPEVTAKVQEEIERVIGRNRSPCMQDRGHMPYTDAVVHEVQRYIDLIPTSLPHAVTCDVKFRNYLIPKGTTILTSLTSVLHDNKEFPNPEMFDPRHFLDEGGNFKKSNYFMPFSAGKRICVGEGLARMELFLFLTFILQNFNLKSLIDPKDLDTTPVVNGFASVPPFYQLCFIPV

CCCCCOC(=O)Nc1nc(=O)n([C@@H]2O[C@H](C)[C@@H](O)[C@H]2O)cc1F [Capecitabine, capecitabine]
efficacy and tolerability of dose schedule (pancreatic cancer): effective and tolerable

O=C(c1cc(Cc2n[nH]c(=O)c3ccccc23)ccc1F)N1CCN(C(=O)C2CC2)CC1 [olaparib]
median PFS ([1]; gBRCA patients after ≥16 weeks of platinum-based therapy, vs. placebo): 7.4 months | HR (PFS vs. placebo) ([1]; gBRCA patients, p=0.004): 0.53

CN(C)CCCNC(=O)/C(=C/CCCCC(=O)NO)COc1cccc2ccccc12.O=P(O)(O)O [ivaltinostat, (E)-N1-(3-(dimethylamino)propyl)-N8-hydroxy-2-((naphthalen-1-yloxy)methyl)oct-2-enediamide phosphate]
anemia, grade 3 treatment-related AE frequency [2, 6]: 17% | anemia, grade 4 treatment-related AE frequency [2, 6]: 0% | deaths related to SAEs considered related to the investigational drugs [2, 6]: no deaths | discontinuation of study drug due to an AE [2, 6]: No subjects discontinued | neutrophil count decreased, grade 3 treatment-related AE frequency [2, 6]: 13% | neutrophil count decreased, grade 4 treatment-related AE frequency [2, 6]: 17% | platelet count decreased, grade 3 treatment-related AE frequency [2, 6]: 17% | platelet count decreased, grade 4 treatment-related AE frequency [2, 6]: 13% | tolerability [2, 6]: generally well tolerated | partial responses [2, 7]: 25% | partial responses, number of patients [2, 7]: 4 patients | stable disease [2, 7]: 68.8% | stable disease, number of patients [2, 7]: 11 patients | disease control rate (DCR) [2, 8]: 93.8% | objective response rate (ORR) [2, 8]: 25.0% | substrate for CYP3A (CYP3A): substrate | substrate for CYP2D6 (CYP2D6 [3]): substrate | IC50 (CYP2C19): > 90 µM | IC50 (CYP2D6 [4]): 5.5 µM | IC50 (CYP3A4): > 10 µM | IC50 (CYP2C9): > 90 µM | IC50 (CYP1A2): > 10 µM

FOLFIRINOX
median progression-free survival (PFS) [5]: 6.4 months | overall survival (OS) [5]: 11.1 months
